Results: US11059823B2, “Small molecule inhibitors of the JAK family of kinases” (Janssen Pharmaceutica NV, priority 2016, dated 2021)

Key:
[1] = Physical stability of crystalline embodiments of compound Ex. 1 (polymorph screening, HT-XRPD); format: physicochemical; conditions: for physical stability after exposure to AAC: accelerated aging conditions, 40° C./70% RH, two days
Experimental: Long term slurry experiments were performed by suspending compound embodiment 1s in twenty neat solvents and stirred at room temperature for two weeks and at 50° C. for one week. Upon completion of the equilibration time, the residual solids were separated from the mother liquors. The solids were dried under ambient conditions and dried under vacuum (5 mBar) before being analyzed by HT-XRPD. Subsequently, the solids were exposed to accelerated aging conditions (40° C./70% relative humidity) for two days and again analyzed by HT-XRPD.
Embodiment is converted to hydrated embodiment 10 when it was exposed to 100% RH at 25° C. […] This behavior is attributable to an unequally strong binding of all the hydration/solvation molecules. In this case, embodiment 10 would have a less strongly bound second water molecule that would be lost under ambient conditions. More precisely, the physical stability of embodiment is was investigated in climate chambers by exposing a 20 mg sample of such embodiment to 40° C. and 70% relative humidity for four days, and another 20 mg sample of the same embodiment was exposed also for four days to 25° C. and 100% relative humidity. After four days, the various solid samples were analyzed by HR-XRPD, the crystal cell parameters were determined and the diffractograms were indexed. From bottom to top, the first diffractogram in FIG. 6 corresponds to embodiment is as starting material, and the second corresponds to the same form after a 4-day exposure to 40° C. and 70% relative humidity, noted as “1s 70 RH” in the same figure. […] Indexing for such form was not possible due to the small amount in which it was present. The third diffractogram corresponds to embodiment is after a 4-day exposure to 25° C. and 100% relative humidity, noted as “10” in the same figure. […] Upon dehydration, both embodiments 1s and 10 re-crystallized to the anhydrous form with a melting point of 148° C.
The mother liquors of the solvent equilibration experiments performed at 50° C. were filtered at 50° C. to remove any particulate matter. […] When solids had precipitated during aging these solids were separated from the liquid, dried under ambient conditions and under vacuum, and analyzed by HT-XRPD. The remaining mother liquors were allowed to slowly evaporate and the remaining solids were analyzed by HT-XRPD. The samples in which no precipitation occurred were placed under vacuum and the dried solids were analyzed by HT-XRPD. All the solids were then exposed to AAC (2 days at 40° C./70% RH) and re-analyzed by HT-XRPD.
The cooling/evaporative crystallization experiments at L scale were performed in a 96-well plate, using 12 neat solvents and 12 solvent mixtures and applying four temperature profiles. […] Upon completion of the temperature profile the solvents were allowed to evaporate at low ambient pressure (24 hours) and the remaining solids were analyzed by HT-XRPD before and after exposure to AAC for 2 days (40° C./70% RH).
The cooling crystallization experiments with hot filtration were performed from supersaturated solutions of compound Ex. 1 prepared at 50° C. in different solvent mixtures. […] The vials in which solids had precipitated after the temperature profile were centrifuged and the solids were separated from the liquid and analyzed by HT-XRPD (after drying under vacuum). If no solids had precipitated the solutions were evaporated under vacuum and the solids analyzed by HT-XRPD. […]

MDCK-MDR1 cell line = assay: MDCK-MDR1 permeability assay; format: in vitro ADME; conditions: apical-to-basolateral, with P-gp inhibitor elacridar (2 μM), 5 μM, 60 min
Experimental: Permeability measurements were conducted according to the Cyprotex protocol using the MDCK-MDR1 cell line obtained from the NIH (Rockville, Md., USA). […] The cells in this assay form a cohesive sheet of a single cell layer filing the surface area of the culture dish, also known as a confluent monolayer, and on day four the test compound was added to the apical side of the membrane and the transport of the compound across the monolayer was monitored over a time period of 60 min.
Test compounds were dissolved in DMSO at a concentration of 10 mM. The dosing solutions were prepared by diluting test compound with assay buffer (Hanks Balanced Salt Solution), pH 7.4, at a final concentration of 5 μM. For assessment of apical to basolateral (“A-B”) permeability, buffer was removed from the apical compartment and replaced with test compound dosing solution with or without the permeability glycoprotein (“PgP”, “P-gP”, “Pgp” or “P-gp”) inhibitor elacridar (2 μM). For assessment of basolateral to apical (“B-A”) permeability, buffer was removed from the companion plate and replaced with test compound dosing solution. Incubations were carried out in duplicate at 37° C. in an atmosphere of 5% CO2 with a relative humidity of 95%. Each assay included the reference markers propranolol (high permeability) and prazosin (PgP substrate). After incubation for 60 minutes, apical and basolateral samples were diluted and test compounds quantified by LC/MS/MS using an 8-point calibration in the range 0.0039 to 3 μM with appropriate dilution of the samples (receiver dilution factor=1; donor and Co dilution factor=10). The permeability coefficient (Papp) for each compound was calculated from the following equation: Papp=(dQ/dt)/(C0×S), where dQ/dt is the rate of permeation of the drug across the cells, C0 is the donor compartment concentration at time zero, and S is the area of the cell monolayer.
Papp(A-B) gives an indication of permeation extent across the cells in this assay, which is envisaged to model the transcellular transport across Pgp-expressing cells, such as Pgp-expressing gastrointestinal tract cells.

moderate to severe CD = conditions: 4 week/Phase 2 clinical trial; cited from earlier work

SMILES	physical stability after exposure to AAC [1]	further results
CC(C)(O)CNC(=O)Cc1nc2cnc3[nH]ccc3c2n1[C@H]1CC[C@H](CC#N)CC1 [Embodiment 2]	converted to embodiment 3e	–
CC(C)(O)CNC(=O)Cc1nc2cnc3[nH]ccc3c2n1[C@H]1CC[C@H](CC#N)CC1 [Embodiment 5]	physically unstable	–
CC(C)(O)CNC(=O)Cc1nc2cnc3[nH]ccc3c2n1[C@H]1CC[C@H](CC#N)CC1 [Embodiment 6]	stable solid form	–
CC(C)(O)CNC(=O)Cc1nc2cnc3[nH]ccc3c2n1[C@H]1CC[C@H](CC#N)CC1 [Embodiment 7]	physically stable	–
CC(C)(O)CNC(=O)Cc1nc2cnc3[nH]ccc3c2n1[C@H]1CC[C@H](CC#N)CC1 [Embodiment 10]	–	physical stability under ambient conditions ([1]; ambient conditions): limited physical stability
N#CC[C@H]1CC[C@H](n2c(CC(=O)NC3CCOCC3)nc3cnc4[nH]ccc4c32)CC1 [Ex. 5, 2-(1-((1r,4r)-4-(Cyanomethyl)cyclohexyl)-1,6-dihydroimidazo[4,5-d]pyrrolo[2,3-b]pyridin-2-yl)-N-(tetrahydro-2H-pyran-4-yl)acetamide]	–	MDCK-MDR1 P^eapp(A-B) @ 5 (μM) (MDCK-MDR1 cell line): 0.5 10^−6 cm/sec
C[C@@H]1CCN(C(=O)CC#N)C[C@@H]1N(C)c1ncnc2[nH]ccc12 [tofacitinib]	–	clinical efficacy in Crohn's disease (moderate to severe CD): failure to achieve clinical efficacy
